Data reported in patent US20260216343A1, “CONJUGATE, MICELLE AND ANTICANCER AGENT” (TOHOKU UNIVERSITY, priority 2023, published 2026).
Where a name gives a salt, the structure may show the parent alone.

Assays:
WT-GFP cells (Hepa1) = experiment: Cell fluorescence analysis (relative fluorescence as cell survival) after HF treatment; type: cell-based; details: HF at various doses up to 50 nM, 48 hours
Experimental: (§1) WT-GFP and Keap1-mCherry Hepa1 cells were prepared in the same manner as in Mol Cell Biol., 2020 Oct 26, 40(22). The cells were maintained in Dulbecco's modified Eagle's medium (DMEM) containing 10% (v/v) fetal bovine serum and antibiotics (penicillin-streptomycin) at 37° C. and 5% CO2.
(§2) For cell fluorescence analysis, 4×10^4 WT-GFP cells and 2×10^4 Keap1-mCherry Hepa1 cells were cultured separately on day −1 in a black 96-well plate (Corning; number 3904). On day 0, HF or saline was introduced at various concentrations, and then the plate was returned to an incubator at 37° C. until day 2. The fluorescence intensities of the cells were measured using a PHERAstar FS microplate reader (BMG Labtech, Ortenberg, Germany).
(§3) HF has been reported to suppress Nrf2 accumulation in cells (FIG. 1A). To examine the tumor suppressive role of HF in Nrf2-activated tumor cells, enhanced green fluorescent protein (EGFP)-expressing wild type (WT) Hepa1 cells (hereinafter also referred to as “WT-GFP cells”) and mCherry-expressing Keap1 knockout cells (hereinafter also referred to as “Keap1 KO-mCherry cells”) were treated with HF. Both isogenic cell lines used were the same as those in Mol Cell Biol., 2020 Oct 26, 40(22). […] It has been shown in Mol Cell Biol., 2020 Oct 26, 40(22) that there is a correlation between the relative fluorescence intensity and the cell survival rate.

[1] = tested on: Keap1 KO-mCherry cells (Hepa1); experiment: as above; type: cell-based; details: HF at various doses up to 50 nM, 48 hours
Experimental: as §1, §2, §3

[2] = Dose-dependent in vivo toxicity / maximum tolerated dose of HF; set-up: species or system WT C57BL/6 mice
Excerpt: (§4) Keap1^FB/FB:Kras^G12D mice were produced in the same manner as in Cancer Res, 15 Aug. 2020, 80(16):3331-3344, Genes & Dev., 2001, 15:3243-3248, and Am J Respir Cell Mol Biol., 2010 May, 42(5):524-36. All the mice used in this test had the C57BL/6J background. Saline, HF, and HFm were intravenously injected to the mice. All the in vivo experiments were approved by the animal welfare committee of Tohoku University.
(§5) Monocytes were isolated from the bone marrow, the spleen, and the thymus using Ficoll-Paque PREMIUM 1.084 (Cytiva 17-5446-02). The monocytes were stained with allophycocyanin-eFluor 780 conjugate anti-c-Kit (Invitrogen; Clone 2B8), Brilliant Violet 421 conjugate anti-B220 (Biolegend; Clone RA2-6B2), phycoerythrin conjugate anti-F4/80 (Biolegend; Clone BM8), fluorescein isothiocyanate conjugate anti-Ly6G (Biolegend; Clone 1A8), Brilliant Violet 421 conjugate anti-CD11b (Biolegend; Clone M1/70), fluorescein isothiocyanate conjugate anti-CD71 (eBiosciences; CloneR17217), phycoerythrin conjugate anti-Ter119 (eBiosciences; Clone TER-119), PE-Cyanine7 conjugate anti-CD4 (Invitrogen; CloneGK1.5), and allophycocyanin conjugate anti-CD8 (Biolegend; Clone S3-6.7). The dead cells were removed using propidium iodide staining. The analysis was made using FACSVerse (BD Biosciences). The data were analyzed using FlowJo software (BD Biosciences).
Preclinical animal testing was conducted to determine the maximum tolerated dose (hereinafter also referred to as MTD) of HF. […] Thus, in this test, HF was administered to WT C57BL/6 mice (eight to 12 weeks old, both females and males) incrementally in the range of 0.25 mg/kg to 1 mg/kg (FIG. 2A). HF was administered to the tail veins every two days four times in total.

[3] = Systemic side effect markers in cancer-bearing mice; type: in vivo, Keap1^FB/FB:Kras^G12D mice
Excerpt: as §5
Because HF is slowly and continuously released from HFm through encapsulation of HF in polymer micelles, it was supposed that HFm may act as a far safer drug than HF. Thus, because the MTD of HF was 0.75 mg/kg bw, various side effect markers were examined in cancer-bearing model mice treated with 0.75 mg/kg bw of HFm and compared with those of the mice treated with the same amount of HF.
(§6) After KRAS-driven lung adenocarcinoma was grown for 17 weeks, the mice were treated with saline, HF (0.25 mg/kg), or HFm (0.25 mg/kg) every two days four times in total (FIG. 7A).

[4] = tested on: Nrf2-activated lung adenocarcinoma; experiment: Tumor suppression in Kras-driven Nrf2-activated lung adenocarcinoma mouse model; type: in vivo, Keap1^FB/FB:Kras^G12D mice
Excerpt: as §4
Adeno-Cre was purchased from VectorBioLabs (Ad-Cre-GFP, catalog no. 1700). Adeno-Cre was administered in the same manner as in Nat Protoc 4, 2009, 1064-1072. Briefly, 1×10^7 plaque-forming units of Adeno-Cre were mixed with Eagle's minimum essential medium (MEM) and calcium chloride. The mixture was incubated on ice for 20 minutes and used for intranasal dropping within one hour of the preparation. Droplets containing the Adeno-Cre mixture were administered to the nostrils of anesthetized mice (eight to 12 weeks old) using a pipette. The mice were allowed to inhale the droplets gradually.
The lung tissues were fixed in 10% formalin (Mildform 10N; FUJIFILM Wako Pure Chemical Corporation, Osaka) and embedded in paraffin. The slices were stained with hematoxylin-eosin (HE) or elastica-Masson (EM). To measure the tumor areas, five slices were cut out with a certain distance and stained with HE. The tumor areas were measured using ImageJ software (NIH).
To examine whether administration of HF or HFm could suppress the progress of Nrf2-activated non-small-cell lung cancer (NSCLC), a Kras-driven lung adenocarcinoma mouse model was used (Genes&Dev., 2001, 15:3243-3248). A mouse having a loxP-Stop-loxP Kras^G12D-knocked-in allele (hereinafter also referred to as “Kras mouse”) was mated with a mouse having a Keap1-flox allele in the loxP site including the third and fourth exons (hereinafter also referred to as “Keap1^FB”) (Am J Respir Cell Mol Biol., 2010 May, 42(5):524-36), and thus a Keap1^FB/FB:Kras^G12D complex mouse was obtained (Cancer Res, 15 Aug. 2020, 80(16):3331-3344). Through Cre recombination by intranasal infection with Adeno-Cre, activation of Kras cancer gene and deletion of Keap1 exons were achieved simultaneously. By this operation, Nrf2-activated lung adenocarcinoma was successfully imitated in mice.
Then, after the tumor was grown for 17 weeks, administration of HF or HFm was started. HF or HFm was intravenously administered every two days, and injection was conducted four times in total. Because the MTD of HF was determined to be 0.75 mg/kg bw (FIG. 2), it was decided to use 0.75 mg/kg bw of HF or HFm in this cancer-bearing mouse experiment. The mice were sacrificed on the eighth day. Various characteristics of the lung tumors were analyzed, and the effectiveness of HF and HFm changing the tumor burden was evaluated (FIG. 4A).
Next, by EM staining of the lung slices, the influence of HF and HFm on the malignancy of tumors was examined (FIG. 4C, bottom). Using images of the slices, the lung lesions were evaluated according to the guidelines of the system of the 2015 World Health Organization Classification of Lung Tumors (Front Oncol., 2017 Aug 28, 7: 193). Briefly, lung tumors include two types, namely a lepidic lesion and a papillary lesion. A lepidic lesion indicates in situ proliferation of cells along the alveolar walls (arrows with “x”), while a papillary lesion indicates proliferation away from the alveolar walls (arrows with “y”). A tumor with many papillary lesions is called Grade II, and it is known that the prognoses of a patient having many papillary tumors is poor compared to that of a patient having many lepidic tumors (Grade I). When the main component of the tumor is composed of a solid sheet and when no recognizable lepidic or papillary pattern is found, the tumor is classified as a solid tumor (Grade III).
as §6

[5] = tested on: Nrf2 protein in WT-GFP cells; experiment: Immunoblotting of Nrf2 protein after HF treatment; type: cell-based; details: 50 nM HF, 0-18 hours, whole cell lysates
Experimental: (§7) For analyzing cultured cells, 1×10^6 WT-GFP and Keap1-mCherry Hepa1 cells were separately seeded on day −1 and treated with 50 nM HF on the next day (day 0). Whole cell lysates were prepared by lysing the cells with SDS buffer (0.25 M Tris-HCl (pH 6.8), 8% (w/v) SDS, and 20% glycerol) and collected 0, three, six, 12, and 18 hours after the HF treatment. An anti-Nrf2 antibody (Cell Signaling Technology, #12721, 1:500 dilution) and an anti-α-tubulin antibody (Sigma, T9026, 1:1000 dilution) were used.
(§8) To examine whether the selective decrease in the Keap1 KO-mCherry cells was caused by suppression of Nrf2 accumulation, Nrf2 protein was analyzed by immunoblotting at various points in time after isogenic Hepa1 cells were exposed to HF. […] The above experiment was repeated, and densitometry measurement of immunoblotting bands was conducted (FIG. 1F).

[6] = tested on: Nrf2 protein in Keap1 KO-mCherry cells; experiment: Immunoblotting of Nrf2 protein after HF treatment; type: cell-based; details: 50 nM HF, 0-18 hours, whole cell lysates
Experimental: as §7, §8

[7] = 0.25 to 0.75 mg/kg iv four times
[8] = 0.75 mg/kg bw iv four times, vs. HFm or saline
[9] = 0.75 mg/kg bw iv four times, vs. saline

O=C(CC1NCCCC1O)Cn1cnc2cc(Br)c(Cl)cc2c1=O (stereo not shown) [HF, Halofuginone hydrobromide]
count of WT-GFP cells (relative fluorescence intensity) (WT-GFP cells (Hepa1)): did not decrease substantially
count of Keap1 KO-mCherry cells (relative fluorescence intensity) [1]: decreased significantly in a concentration-dependent manner
bone marrow B cell count (B220+) ([2]; 0.75 mg/kg iv four times): decreased
erythroblasts (Ter119+CD71+) of the spleen ([2]; 0.75 mg/kg iv four times): most of the erythroblasts disappeared
acute condition of mice ([2]; 1 mg/kg iv every two days): showed a sign of acute disorder after two injections and were moribund
body weight change ([2]; 1 mg/kg iv, day 1 vs. day 4): −13.4%
mortality ([2]; 1 mg/kg iv, eight mice, after second administration): one mouse in the administration group died
bone marrow precursor cell count (c-Kit+) [2, 7]: did not change largely
bone marrow total cell count [2, 7]: did not change largely
erythroblasts (Ter119+CD71+) of the spleen [2, 7]: decreased largely in a dose-dependent manner
erythrocyte counts in peripheral blood [2, 7]: equivalent in all the groups
leukocyte count in peripheral blood [2, 7]: decreased in a dose-dependent manner
platelet counts in peripheral blood [2, 7]: equivalent in all the groups
thymus weight [2, 7]: decreased with significance in a dose-dependent manner
whole cells of the spleen [2, 7]: decreased largely in a dose-dependent manner
thymus CD4 single-positive (CD4+CD8-) cells ([2]; HF iv four times): decreased
thymus CD8 single-positive (CD4-CD8+) cells ([2]; HF iv four times): tendency towards a decrease
total cells of the thymus ([2]; HF iv four times): decreased
spleen weight ([2]; increasing HF dose, iv four times): decreased stepwisely
maximum tolerated dose (MTD) ([2]; iv every two days four times): 0.75 mg/kg bw
erythrocyte count in peripheral blood ([3]; 0.25 mg/kg bw iv four times): did not affect
leukocyte count in peripheral blood ([3]; 0.25 mg/kg bw iv four times): decreased the leukocyte count with significance
body weight changes ([3]; 0.25 mg/kg bw iv four times, vs. other groups): equivalent
atrophy of the thymus ([3]; 0.75 mg/kg bw iv four times): remarkable
erythroblasts (Ter119+CD71+) of the spleen ([3]; 0.75 mg/kg bw iv four times): decreased with significance
erythrocytes in peripheral blood ([3]; 0.75 mg/kg bw iv four times): decreased
hematocrit levels ([3]; 0.75 mg/kg bw iv four times): decreased
leukocyte count in peripheral blood ([3]; 0.75 mg/kg bw iv four times): significant decrease
spleen cell count ([3]; 0.75 mg/kg bw iv four times): decreased with significance
spleen weight ([3]; 0.75 mg/kg bw iv four times): decreased with significance
thymus CD4 single-positive cells (CD4+CD8-) count ([3]; 0.75 mg/kg bw iv four times): decreased
thymus double-negative cells (CD4-CD8-) count ([3]; 0.75 mg/kg bw iv four times): decreased
thymus double-positive cells (CD4+CD8+) count ([3]; 0.75 mg/kg bw iv four times): decreased
thymus total cell count ([3]; 0.75 mg/kg bw iv four times): decreased significantly
total cell count of the bone marrow ([3]; 0.75 mg/kg bw iv four times): decreased significantly
bone marrow B cells (B220+) count [3, 8]: decreased significantly
bone marrow macrophages (CD11b+F4/80+) count [3, 8]: decreased significantly
bone marrow neutrophils (CD11b+Ly6G+) count [3, 8]: decreased significantly
bone marrow precursor cells (c-Kit+) count [3, 8]: decreased significantly
thymus CD8 single-positive cells (CD4-CD8+) ([3]; 0.75 mg/kg bw iv four times, vs. saline or HFm): tendency towards a lower frequency
number of papillary lesions vs. saline ([4]; 0.25 mg/kg bw iv four times): far smaller
number of solid tumors vs. saline ([4]; 0.25 mg/kg bw iv four times): smaller with significance
lung weight vs. saline-treated mice ([4]; 0.75 mg/kg bw iv every two days four times, day 8): lower with significance
solid adenocarcinomas of Grade III ([4]; 0.75 mg/kg bw iv four times): disappeared completely
number of lepidic (Grade I) tumors [4, 9]: equivalent numbers
number of papillary (Grade II) tumors [4, 9]: equivalent numbers
frequency of the papillary tumors ([4]; 0.75 mg/kg bw iv four times, vs. saline control): lower
tumor area (HE-stained lung sections) ([4]; 0.75 mg/kg bw iv four times, saline-treated group 21%): 10%
lung weight decrease (saline vs. treatment) ([4]; high dose (0.75 mg/kg)): 37.6%
tumor area decrease (saline vs. treatment) ([4]; high dose (0.75 mg/kg)): 9.95%
lung weight decrease (saline vs. treatment) ([4]; low dose (0.25 mg/kg)): 25.7%
tumor area decrease (saline vs. treatment) ([4]; low dose (0.25 mg/kg)): 7.42%
disappearance of solid tumors ([4]; low-dose therapy (0.25 mg/kg bw)): did not disappear completely
Nrf2 protein level [5]: not detected at all the points in time
Nrf2 protein level [6]: depleted rapidly
